Measured values as given in patent US8748377B2, “Pharmaceutical compositions” (GlaxoSmithKline LLC, priority 2008, dated 2014).
Where “and” joins values, the source holds several entries; their conditions need not be identical. Equal entries are not always repeated.

What was measured:
Assay type in all cases: in vivo, human
[1] = Phase 2 trial: pharmacokinetics of albiglutide (plasma ELISA, population PK with NONMEM)
Description: Adverse event assessments and safety analyses (including electrocardiograms, vital sign measurements and physical exams) were conducted throughout the study. Nausea and vomiting were monitored for occurrence and duration. Immunogenicity assessments were performed with samples taken at baseline and at weeks 1, 4, 8, and 12, and 16. Samples were screened for anti-albiglutide antibodies via ELISA (Matthews, et al. J Clin Endocrinol Metab. 2008; DOI: 10.1210/jc.2008-1518). […] Population PK analysis was performed using a nonlinear mixed-effect modelling approach with NONMEM software (Icon Development Solutions, Ellicott City, Md.).

[2] = 28-day study in Japanese subjects: pharmacokinetics; conditions: sc abdomen
Description: In the 100 mg monthly group, most common AEs were flatulence (n=3, 38%), vomiting (n=3, 38%) and nausea (n=2, 25%).

type 2 diabetic subjects = experiment: Phase 2 randomized, placebo-controlled 16-week trial of weekly, biweekly and monthly albiglutide: glycemic efficacy (A1C, FPG, weight); conditions: for A1C change from baseline (mean) / FPG change from baseline (mean) / Subjects achieving A1C < 7.0% / A1C reduction compared with placebo (ANCOVA model) / FPG change from baseline compared with placebo: week 16; for HbA1c reduction in MET subjects: 16 weeks; for FPG reduction in background metformin (MET) subjects: after 16 weeks
Description: Main outcome measure was change from baseline A1C, week 16 vs placebo.
Men and women of non-childbearing potential from 18-75 years of age were eligible for inclusion if diagnosed with type 2 diabetes ≧3 months before screening. Subjects were drug-naïve (diet & exercise) or treated with diet and exercise plus metformin as monotherapy stable for >3 months before prescreening (1 week prior to screening visit). […] Additional inclusion criteria included: BMI≧20 and ≦40 kg/m^2 and A1C at screening ≧7% and ≦10%.
A1C and fasting plasma glucose (FPG) measurements were performed at Screening, Baseline, and at Weeks 2 (FPG Only), 4, 5, 7, 8, 9, 12, 15, and 16.
The primary efficacy endpoint was change from baseline A1C at week 16 vs placebo across different doses within each schedule (weekly, biweekly, and monthly). The primary analysis was an ANCOVA model with main effects for treatment group and prior metformin therapy, adjusting for baseline A1C. Dose response was evaluated using contrasts within the ANCOVA model framework. Pairwise comparisons were performed in the same ANCOVA model. Secondary endpoints were analyzed similarly. Responder analysis and incidence of hypoglycemia were summarized by group statistics. […] Safety and tolerability data were collected categorically.
Comparisons were made on the intent-to-treat population, defined as all randomly assigned subjects with at least one post-baseline assessment of the primary endpoint, using last-observation carried forward. The safety population included all randomized patients who received at least one dose of any medication after being randomized. An interim analysis was conducted at 8 weeks for administrative purposes by an independent statistical analysis group; blinding was retained for study investigators and study personnel with daily operational responsibility.
Patients were also assessed for reduction in fasting plasma glucose (FPG) and HbA1c reduction based on background metformin (MET) treatment.

[3] = 30 mg weekly sc, listed as albiglutide
[4] = 50 mg biweekly sc, listed as ALB
[5] = 50 mg biweekly sc, listed as albiglutide

**Q.** Which “Steady state achieved after” value ([1]; 30 mg weekly) does the source give for “Albiglutide: Long-acting GLP-1 receptor agonist: two DPP-4-resistant human GLP-1 analogs (GLP-1(7-36)(A8G)) fused to human albumin; SEQ ID NO:1” here?
**A.** 4-5 doses

**Q.** What about the Tmax ([1]; albiglutide sc) of the same substance?
**A.** ~72 h

**Q.** And the Half-life ([1]; sc, type 2 diabetic subjects)?
**A.** ~120 h

**Q.** And the “Time to steady state levels after the first dose” value ([1]; sc, type 2 diabetic subjects)?
**A.** 4-5 weeks

**Q.** And the Half-life ([1]; sc, type 2 diabetic subjects, listed as SEQ ID NO:1)?
**A.** about 5 days

**Q.** And the CL/F [2]?
**A.** 68.7 mL/h

**Q.** And the “Plasma t1/2” value [2]?
**A.** 127 h

**Q.** And the V/F [2]?
**A.** 12.6 L

**Q.** What about the “A1C change from baseline (mean)” value (type 2 diabetic subjects; 4 mg weekly sc) of the same substance?
**A.** −0.11%

**Q.** And the “FPG change from baseline (mean)” value (type 2 diabetic subjects; 4 mg weekly sc)?
**A.** -0.47 ± 3.1 mmol/L

**Q.** What about the “Subjects achieving A1C < 7.0%” value (type 2 diabetic subjects; 4 mg weekly sc) of the same substance?
**A.** 17.6%

**Q.** And the “A1C change from baseline (mean)” value (type 2 diabetic subjects; 4 mg weekly sc, listed as ALB)?
**A.** −0.1 ± 1.2%

**Q.** And the “A1C change from baseline (mean)” value (type 2 diabetic subjects; 15 mg biweekly sc)?
**A.** −0.56%

**Q.** What about the “FPG change from baseline (mean)” value (type 2 diabetic subjects; 15 mg biweekly sc) of the same substance?
**A.** -1.28 ± 2.4 mmol/L

**Q.** And the “Subjects achieving A1C < 7.0%” value (type 2 diabetic subjects; 15 mg biweekly sc)?
**A.** 26.7%

**Q.** And the “A1C change from baseline (mean)” value (type 2 diabetic subjects; 15 mg biweekly sc, listed as ALB)?
**A.** −0.6 ± 1.0%

**Q.** What about the “A1C change from baseline (mean)” value (type 2 diabetic subjects; 15 mg weekly sc) of the same substance?
**A.** −0.49%

**Q.** What about the “FPG change from baseline (mean)” value (type 2 diabetic subjects; 15 mg weekly sc) of the same substance?
**A.** -0.72 ± 1.7 mmol/L

**Q.** And the “A1C change from baseline (mean)” value (type 2 diabetic subjects; 15 mg weekly sc, listed as ALB)?
**A.** −0.5 ± 0.7%

**Q.** What about the “A1C change from baseline (mean)” value (type 2 diabetic subjects; 30 mg biweekly sc) of the same substance?
**A.** −0.79 ± %

**Q.** And the “FPG change from baseline (mean)” value (type 2 diabetic subjects; 30 mg biweekly sc)?
**A.** -1.58 ± 2.1 mmol/L

**Q.** And the “Subjects achieving A1C < 7.0%” value (type 2 diabetic subjects; 30 mg biweekly sc)?
**A.** 50.0%

**Q.** And the “A1C change from baseline (mean)” value (type 2 diabetic subjects; 30 mg biweekly sc, listed as ALB)?
**A.** −0.8 ± 1.0 %

**Q.** What about the “MET patients achieving HbA1c <7%” value (type 2 diabetic subjects; 30 mg weekly) of the same substance?
**A.** 43%

**Q.** And the “A1C change from baseline (mean)” value (type 2 diabetic subjects; 30 mg weekly sc)?
**A.** −0.87 ± %

**Q.** And the “A1C change from baseline (mean)” value (type 2 diabetic subjects; 30 mg weekly sc, listed as ALB)?
**A.** −0.9 ± 0.7 %

**Q.** And the “FPG change from baseline (mean)” value (type 2 diabetic subjects; 30 mg weekly sc, listed as ALB)?
**A.** -1.44 ± 2.0 mmol/L

**Q.** And the “Subjects achieving A1C < 7.0%” value (type 2 diabetic subjects; 30 mg weekly sc, listed as ALB)?
**A.** 51.7%

**Q.** And the “A1C change from baseline (mean)” value (type 2 diabetic subjects; [3])?
**A.** −0.87% and −0.9%

**Q.** What about the “FPG change from baseline (mean)” value (type 2 diabetic subjects; [3]) of the same substance?
**A.** -1.44 mmol/L

**Q.** What about the “Subjects achieving A1C < 7.0%” value (type 2 diabetic subjects; [3]) of the same substance?
**A.** 52%

**Q.** And the “HbA1c reduction in MET subjects” value (type 2 diabetic subjects; 30 mg weekly)?
**A.** −0.78%

**Q.** What about the “FPG reduction in background metformin (MET) subjects” value (type 2 diabetic subjects; 30 mg weekly) of the same substance?
**A.** -1.26 mmol/L

**Q.** And the “A1C reduction compared with placebo (ANCOVA model)” value (type 2 diabetic subjects; 30 mg weekly)?
**A.** −0.62%

**Q.** What about the “FPG change from baseline compared with placebo” value (type 2 diabetic subjects; 30 mg weekly) of the same substance?
**A.** -1.38 mmol/L

**Q.** What about the “MET patients achieving HbA1c <7%” value (type 2 diabetic subjects; 50 mg biweekly) of the same substance?
**A.** 50%

**Q.** What about the “A1C change from baseline (mean)” value (type 2 diabetic subjects; 50 mg biweekly sc) of the same substance?
**A.** −0.79 ± %

**Q.** What about the “A1C change from baseline (mean)” value (type 2 diabetic subjects; [4]) of the same substance?
**A.** −0.8 ± 1.0 %

**Q.** And the “FPG change from baseline (mean)” value (type 2 diabetic subjects; [4])?
**A.** -1.32 ± 3.5 mmol/L

**Q.** And the “Subjects achieving A1C < 7.0%” value (type 2 diabetic subjects; [4])?
**A.** 52.9%

**Q.** And the “A1C change from baseline (mean)” value (type 2 diabetic subjects; [5])?
**A.** −0.79% and −0.8%

**Q.** And the “FPG change from baseline (mean)” value (type 2 diabetic subjects; [5])?
**A.** -1.32 mmol/L

**Q.** What about the “Subjects achieving A1C < 7.0%” value (type 2 diabetic subjects; [5]) of the same substance?
**A.** 53%

**Q.** What about the “HbA1c reduction in MET subjects” value (type 2 diabetic subjects; 50 mg biweekly) of the same substance?
**A.** −0.83%

**Q.** And the “FPG reduction in background metformin (MET) subjects” value (type 2 diabetic subjects; 50 mg biweekly)?
**A.** -2.10 mmol/L

**Q.** And the “A1C reduction compared with placebo (ANCOVA model)” value (type 2 diabetic subjects; 50 mg biweekly)?
**A.** −0.57%

**Q.** What about the “FPG change from baseline compared with placebo” value (type 2 diabetic subjects; 50 mg biweekly) of the same substance?
**A.** -1.16 mmol/L
